For this assay, the system named is 20S proteasome core particle (20S CP). Kind of assay: FRET peptide hydrolysis assay, percent stimulation over basal. Format: biochemical, Homo sapiens.

With `CCCCC/C=C\C/C=C\CCCCCCCC(=O)O` [compound 15], the Stimulation worked out at 160%.
